Measurements: patent publication US12157743B2, “Solid forms of Alpha-1062 gluconate” (priority 2021, dated 2024)
“Also recorded” adds a separate entry of the source.

Experiments:
[1] = Relative humidity stressing of solid samples, XRPD; assay type: physicochemical
Text: (§1) To investigate the stability of the four pure crystalline forms of Alpha-1062 Gluconate, water activity (aw) slurries using a variety of mixed aqueous/organic solvent systems (Table 6) along with relative humidity stressing (Table 7) were used to define the regions of stability for the given hydrates of Alpha-1062 Gluconate.

[2] = steady-state, human brain vs blood; cited from earlier work
[3] = Storage and XRPD reanalysis; assay type: physicochemical; conditions: reanalyzed
Text: Material G: Alpha-1062 Gluconate, Samples 8235-87-01 and 8235-100-02 (Table 15). Material G has been observed from evaporative experiments of both 1,4-dioxane and THF. […] Based on the spontaneous conversion, Material G is metastable with Form B at that condition. Material G was not observed during any of the water activity slurries or relative humidity work.
Amorphous: Alpha-1062 Gluconate, sample 8235-76-13 (Table 16) has been observed from slow evaporation from methanol (Table 5). […] No significant impurity increases were observed by ^1H NMR. • Thermal Analysis (FIG. 35). A cyclic DSC was conducted to determine the glass transition (Tg) temperature of the amorphous solid. The glass transition temperature was determined to be near 41° C. Decomposition was observed upon continued heating with no nucleation.

[4] = Water activity (aw) slurries in mixed aqueous/organic solvent systems, XRPD; assay type: physicochemical; conditions: for Result (solid form after slurry): ambient; for Water activity at which the form is the most stable form: from water activity slurries and RH stressing, Form C: above 0.12 aw up to the value
Text: as §1

[5] = Dynamic vapor sorption (DVS) isotherm; assay type: physicochemical; conditions: for XRPD of post DVS sample (solid form): material recovered after DVS cycle ending at 5% RH; for DVS hysteresis: 5 to 95 to 5% RH
Text: As used herein, DVS (Dynamic Vapor Sorption) is a gravimetric technique to measure the rate and amount of absorption of a solvent by a sample under controlled conditions. […]

[6] = Heat / vacuum stressing analysed by XRPD; assay type: physicochemical
Description: Form B: Alpha-1062 Gluconate, Sample 8235-82-08 (Table 10). Form B is a tetrahydrate crystalline lattice. It appears that at least one of the four water sites in the crystal lattice is somewhat labile. […] The formula unit volume of 772 Å^3 calculated from the indexing results is larger than Form A by 84 Å^3. […] A broad endotherm with an onset of 66° C. (concurrent with weight loss in the TGA) is observed in the DSC consistent with desolvation. […] Upon desorption, 1.8% weight loss from 95-15% RH followed by 6.8% weight loss from 15-5% RH was observed. The DVS data was corrected for water content measured by KF at 57% RH (FIG. 18). A stable plateau of between 3.6 and 3.9 mol/mol of water for Form B is evident between 15 and 85% RH.
Form C: Alpha-1062 Gluconate, Sample 8235-87-02 (Table 11). Form C was determined to be a monohydrate crystal lattice occupied at only about 0.4 to 0.5 mol/mol of water. […] The XRPD pattern was successfully indexed by a single primitive monoclinic unit cell. The formula unit volume of 706 Å^3 calculated from the indexing results is larger than Form A by 18 Å^3. […] An endotherm with an onset of 119° C. is observed in the DSC. • Form C (sample 8235-92-04) was held at 11% RH for seven days and analyzed by XRPD and DSC for comparison (sample 8296-08-01). […] The DVS data was corrected for water content measured by KF at 11% RH (FIG. 25). […]

[7] = Polymorph screen: ambient slurries of Form A in solvents, XRPD; assay type: physicochemical; conditions: 14 d
Description: A polymorph screening study was initiated to investigate the presence and identity of various solid materials that may be possible for Alpha-1062 Gluconate. This study used lot CA19-1144 as the starting material and utilized various solvent systems and conditions to isolate and study the materials produced during the studies (Table 5). The various materials were analyzed by XRPD and the various solid forms identified as shown (FIG. 6).

[8] = IPA/H2O 97:03 v/v, 0.31 aw, 13 d
[9] = MEK/H2O 98:02 v/v, 0.42 aw, 13 d
[10] = water activity slurries and RH stressing

## COc1ccc2c3c1O[C@H]1C[C@@H](OC(=O)c4ccccc4)C=C[C@@]31CCN(C)C2.O=C(O)C(O)C(O)C(O)C(O)CO [Form C + B, Alpha-1062 gluconate]
[1]; 0% RH, P2O5, 1 d
  Result (solid form by XRPD): C+ A

## COc1ccc2c3c1O[C@H]1C[C@@H](O)C=C[C@@]31CCN(C)C2 [galantamine]
[2]
  brain-to-blood concentration ratio (BBCR): < 2

## COc1ccc2c3c1O[C@H]1C[C@@H](OC(=O)c4ccccc4)C=C[C@@]31CCN(C)C2.O=C(O)C(O)C(O)C(O)C(O)CO [Form D + A, Alpha-1062 gluconate]
[1]; 75% RH, 4 d
  Result (solid form by XRPD): B + D

## COc1ccc2c3c1O[C@H]1C[C@@H](OC(=O)c4ccccc4)C=C[C@@]31CCN(C)C2.O=C(O)C(O)C(O)C(O)C(O)CO [amorphous Alpha-1062 Gluconate, Alpha-1062 gluconate]
[3]; 5 weeks
  Solid form by XRPD on reanalysis: amorphous
[3]; 5 weeks, listed as Amorphous
  Solid form by XRPD on reanalysis: remain amorphous
[3]; 13 days
  Solid form by XRPD on reanalysis: Form B + C
[3]; 13 days, listed as Amorphous
  Solid form by XRPD on reanalysis: spontaneously crystallized to a mixture of Forms B and C

## COc1ccc2c3c1O[C@H]1C[C@@H](OC(=O)c4ccccc4)C=C[C@@]31CCN(C)C2.O=C(O)C(O)C(O)C(O)C(O)CO [Forms B + D, Alpha-1062 gluconate]
[4]; MEK/H2O 97:03 v/v, 0.52 aw, 7 d
  Result (solid form after slurry): B + C

## COc1ccc2c3c1O[C@H]1C[C@@H](OC(=O)c4ccccc4)C=C[C@@]31CCN(C)C2.O=C(O)C(O)C(O)C(O)C(O)CO [Form B, Alpha-1062 gluconate]
[5]
  Hygroscopicity (DVS assessment): limited hygroscopicity
  XRPD of post DVS sample (solid form): anhydrous Form A
[5]; from 15-5% RH (desorption)
  DVS wt. loss: 6.8% wet loss from 15-5% RH % wt.
[1]; 0% RH, P2O5, 1 d
  Result (solid form by XRPD): dehydrate to Form A
[1]; 57% RH, 4 d
  Result (solid form by XRPD): remained Form B
[6]; 40-75° C., 10 min (in DSC)
  Solid form by XRPD after heating: partial dehydration and conversion to a mixture of Forms D and C; also recorded: Form D + C + peak
[4]; [8]
  Result (solid form after slurry): C + B
[4]; [9]
  Result (solid form after slurry): C + B
[4]
  Water activity at which the form is the most stable form: Above 0.5 aw
[4]; in equilibrium Form B/Form C between 0.31 and 0.52 aw
  Water activity of solvent systems in which the form was observed: above 0.52 aw

## COc1ccc2c3c1O[C@H]1C[C@@H](OC(=O)c4ccccc4)C=C[C@@]31CCN(C)C2.O=C(O)C(O)C(O)C(O)C(O)CO [Material G, Alpha-1062 gluconate]
[3]; 5 weeks
  Solid form by XRPD on reanalysis: partially converted to Form B; also recorded: Material G + Form B

## COc1ccc2c3c1O[C@H]1C[C@@H](OC(=O)c4ccccc4)C=C[C@@]31CCN(C)C2.O=C(O)C(O)C(O)C(O)C(O)CO [Form D, Alpha-1062 gluconate]
[1]; 75% RH, 1 d
  Result (solid form by XRPD): Form D + minor B
[1]; [10]
  Relative humidity at which the form converts to Form C: < 52 % RH
  Relative humidity of extended exposure at which the form converts to Form B: ≥ 52 % RH
[4]; [8]
  Result (solid form after slurry): C + B
[4]; [9]
  Result (solid form after slurry): C + B
[4]
  Water activity at which the form is the most stable form: does not appear stable at any of the conditions evaluated

## COc1ccc2c3c1O[C@H]1C[C@@H](OC(=O)c4ccccc4)C=C[C@@]31CCN(C)C2.O=C(O)C(O)C(O)C(O)C(O)CO [Form A, Alpha-1062 gluconate]
[5]
  Hygroscopicity (DVS assessment): significant hygroscopicity above 75% RH
  DVS hysteresis: Hysteresis was observed
  XRPD of post DVS sample (solid form): Form A+minor peaks of Form B
[5]; listed as CA19-1144
  DVS hysteresis: hysteresis observed
  XRPD of post DVS sample (solid form): Form A + B (trace)
[5]; from 5 to 75% RH (sorption)
  DVS wt. gain: 0.57 % wt.
[5]; from 5 to 75% RH (sorption), listed as CA19-1144
  DVS wt. gain: 0.57% wt. gain from 5 to 75% RH
[5]; from 75 to 85% RH (sorption)
  DVS wt. gain: 2.97 % wt.
[5]; from 75 to 85% RH (sorption), listed as CA19-1144
  DVS wt. gain: 2.96% wt. gain from 75 to 85% RH
[5]; from 85 to 5% RH (desorption)
  DVS wt. loss: 2.98% wt. loss from 85 to 5% RH
[5]; from 85 to 95% RH (sorption)
  DVS wt. gain: 8.7 % wt.
[5]; from 85 to 95% RH (sorption), listed as CA19-1144
  DVS wt. gain: 8.67% wt. gain from 85 to 95% RH
[5]; from 95 to 85% RH (desorption)
  DVS wt. loss: 1.73% wt. loss from 95 to 85% RH
[5]; weight within stable plateau on desorption
  Water gain at stable desorption plateau: more than 3 mol/mol
[1]; 43% RH, 5 d
  Result (solid form by XRPD): kinetically stable
[1]; 75% RH, 1 d
  Result (solid form by XRPD): D + minor A
[1]; 75% RH, 2 d
  Result (solid form by XRPD): D + minor B
[7]; EtOH
  Result (solid form after slurry): C + A
[7]; acetone
  Result (solid form after slurry): C + D
[4]; MEK/H2O 98:02 v/v, 0.42 aw, 1 d
  Result (solid form after slurry): C + B
[4]; MEK/H2O 98:02 v/v, 0.42 aw, 2 d
  Result (solid form after slurry): C + B
[4]; MEK/H2O 99:01 v/v, 0.27 aw, 7 d
  Result (solid form after slurry): C + A
[4]
  Water activity at which the form is the most stable form: less than 0.12 aw

## COc1ccc2c3c1O[C@H]1C[C@@H](OC(=O)c4ccccc4)C=C[C@@]31CCN(C)C2.O=C(O)C(O)C(O)C(O)C(O)CO [Form D + B, Alpha-1062 gluconate]
[1]; 75% RH, 1 d
  Result (solid form by XRPD): D + B

## COc1ccc2c3c1O[C@H]1C[C@@H](OC(=O)c4ccccc4)C=C[C@@]31CCN(C)C2.O=C(O)C(O)C(O)C(O)C(O)CO [Form C, Alpha-1062 gluconate]
[5]
  Hygroscopicity (DVS assessment): significant hygroscopicity above 75% RH
  DVS hysteresis: hysteresis observed
  XRPD of post DVS sample (solid form): mixture of Forms C and B; also recorded: Form C + B
[5]; DVS corrected for KF water content at 11% RH
  Water retained after DVS: ~1.4 mol/mol
[5]; from 5-65% RH (sorption)
  DVS wt. gain: 0% wt. gain from 5-65% RH
[5]; from 5 to 75% RH (sorption)
  DVS wt. gain: no significant weight gain
[5]; from 75-5% RH (desorption)
  DVS wt. retained: ~3% wt. retained from 75-5% RH
[1]; 0% RH, P2O5, 1 d
  Result (solid form by XRPD): C + minor A
[1]; 11% RH, 4 d
  Result (solid form by XRPD): remained Form C
[1]; 11% RH, 7 d
  Result (solid form by XRPD): remained Form C
[6]; vacuum, 45° C., 3 hrs
  Solid form by XRPD after vacuum storage: remained Form C with the presence of a minor amount of Form A
[4]; [8]
  Result (solid form after slurry): C + B
[4]; [9]
  Result (solid form after slurry): C + B
[4]
  Water activity at which the form is the most stable form: up to 0.5 aw
